Experimental data taken from patent US8906904B2, “Alkoxy pyrazoles as soluble guanylate cyclase activators” (Boehringer Ingelheim International GmbH, priority 2012, dated 2014).
pEC50: −log10 of the molar value. ≈ marks a conversion by molar mass, not a printed value.

What was measured:
[1] = Assessment of solubility (McIlvaine buffers, 24 h shake, UPLC-UV); format: physicochemical; conditions: kinetic from dmso stock
Protocol: Solubility is measured by the following method.
100 uL, 10 mM DMSO stock solution of each compound is prepared in a 96 well plate format. The experiment is done in single determination at 3 pH values (2.2, 4.5 and 6.8). For each pH and one reference, 40 uL of each compound is needed.
McIlvaine pH 2.2: To 2.076 g citric acid monohydrate and 0.043 g Na2HPO4×2H2O add 100 ml deionized water
McIlvaine pH 4.5: To 1.166 g citric acid monohydrate and 1.585 g Na2HPO4×2H2O add 100 ml deionized water
McIlvaine pH 6.8: To 0.476 g citric acid monohydrate and 2.753 g Na2HPO4×2H2O add 100 ml deionized water
With a suitable liquid handling device (Multipette® or a liquid handler) 390 uL of each buffer solution and 10 uL of compound is added to each well of a 96 deep well plate. The plates are covered firmly and shaken for 24 h on an over head shaker (at 54 RPM) at room temperature. The DMSO content in the final buffer is 2.5% v/v.
After 24 h the plates are centrifuged to remove droplets on the lid before opening (for ˜5 min at 2500 RPM).
The filtration is done under vacuum with Millipore 96 well filter plate. Filtrate is collected in a deep well plate and transferred to a suitable plate for UPLC analysis.
The reference plate is prepared by adding 10 uL of compound to 390 uL of 50:50 acetonitrile/water in a 96 deep well plate and transferred to a suitable plate for UPLC analysis. Wells are checked visually for precipitation, any presence noted under comments in reported results.
The samples are measured with UPLC-UV using the chromatographic method described below.
Waters Empower®2 software is used for generating Sample Sets (according to the plate layout), Sample Set Methods and Instrument Methods.
One Sample Set comprises the methods for three 96 well plates (one reference plate and two sample plates, and includes one Sample Set Method and one Instrument Method).
3. Data Processing and Analysis
The UV chromatograms collected at 254 nm are integrated and processed.
It is assumed that the compound is completely dissolved in the reference solution (50:50 acetonitrile/water)

[2] = target: T1, human soluble guanylate cyclase alpha 1 and beta 1 subunits (sGC) (Homo sapiens, UniProt Q02108+Q02153); assay: sGC cellular activator assay (cGMP, HTRF); format: cell-based; conditions: CHO cells stably expressing human sGC alpha 1/beta 1, preincubated with 40 microM ODQ; cGMP readout; assay run with and without 50% human serum, Table 2 does not say which
T1 construct: expressed in transfected cells; host or cells: Chinese hamster ovary (CHO) cells, stably transfected
T1 sequence (Q02108 1-690): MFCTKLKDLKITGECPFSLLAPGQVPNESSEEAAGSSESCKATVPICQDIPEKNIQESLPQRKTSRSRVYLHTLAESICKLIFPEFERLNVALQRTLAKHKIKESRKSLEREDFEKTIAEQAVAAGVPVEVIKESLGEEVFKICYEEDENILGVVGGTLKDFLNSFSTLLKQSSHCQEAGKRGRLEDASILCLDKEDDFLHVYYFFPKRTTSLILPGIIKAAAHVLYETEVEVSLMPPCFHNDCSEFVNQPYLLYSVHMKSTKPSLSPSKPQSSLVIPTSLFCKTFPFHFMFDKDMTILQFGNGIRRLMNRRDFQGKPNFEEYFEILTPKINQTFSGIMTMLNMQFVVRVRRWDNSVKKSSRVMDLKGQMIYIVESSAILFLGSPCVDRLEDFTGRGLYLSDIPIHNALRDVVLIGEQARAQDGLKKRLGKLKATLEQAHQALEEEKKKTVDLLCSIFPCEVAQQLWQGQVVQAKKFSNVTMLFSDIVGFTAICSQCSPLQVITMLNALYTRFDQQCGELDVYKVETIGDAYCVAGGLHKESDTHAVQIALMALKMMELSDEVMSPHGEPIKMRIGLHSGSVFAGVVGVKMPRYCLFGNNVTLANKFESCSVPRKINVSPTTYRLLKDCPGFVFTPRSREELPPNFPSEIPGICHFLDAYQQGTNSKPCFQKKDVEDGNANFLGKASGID
T1 sequence (Q02153 1-619): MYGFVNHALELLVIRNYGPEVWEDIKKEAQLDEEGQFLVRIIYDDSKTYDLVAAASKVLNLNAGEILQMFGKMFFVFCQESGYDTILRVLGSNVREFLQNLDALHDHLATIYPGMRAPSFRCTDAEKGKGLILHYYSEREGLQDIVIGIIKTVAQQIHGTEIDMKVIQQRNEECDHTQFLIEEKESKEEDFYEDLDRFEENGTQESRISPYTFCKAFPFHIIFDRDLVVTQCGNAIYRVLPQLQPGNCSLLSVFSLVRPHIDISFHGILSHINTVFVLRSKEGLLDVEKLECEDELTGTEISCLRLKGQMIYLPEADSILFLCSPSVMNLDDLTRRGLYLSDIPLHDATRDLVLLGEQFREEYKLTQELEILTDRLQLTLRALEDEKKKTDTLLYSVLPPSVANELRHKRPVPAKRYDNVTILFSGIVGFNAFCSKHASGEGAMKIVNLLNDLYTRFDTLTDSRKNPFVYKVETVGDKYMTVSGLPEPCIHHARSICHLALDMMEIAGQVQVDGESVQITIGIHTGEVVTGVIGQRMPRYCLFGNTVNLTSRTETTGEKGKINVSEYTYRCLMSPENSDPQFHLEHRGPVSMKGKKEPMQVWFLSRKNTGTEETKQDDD
Protocol: The sGC cellular activator assay is performed in the presence and absence of 50% human serum (HS) using Chinese hamster ovary cells that have been stably transfected to express the human soluble guanylate cyclase alpha 1 and beta 1 subunits (sGC). Cells are preincubated with 40 microM 1H-[1,2,4]oxadiazolo[4,3-a]quinoxalin-1-one (ODQ), an sGC inhibitor, for one h in buffer containing 0.1% bovine serum albumin and 3-isobutyl-1-methylxanthine (IBMX). Concentration response curves are prepared for test compounds in DMSO. An intermediate dilution of the compounds is performed in either buffer containing IBMX or type AB HS containing IBMX. Diluted compounds are added to cells and they are incubated at room temperature for thirty min. cGMP is measured using a CisBio homogeneous time resolved fluorescence kit and the EC50 is calculated for each compound.
Representative compounds of the present invention were tested for activity the above assay. Preferred compounds have an EC50 of <1,000 nM in the above assay and more preferred compounds have an EC50<200 nM.

| Compound | solubility at 24 h ([1]; pH 2.2, aqueous buffer) [µg/mL] | solubility at 24 h ([1]; pH 4.5, aqueous buffer) [µg/mL] | solubility at 24 h ([1]; pH 6.8, aqueous buffer) [µg/mL] | pEC50 [2] |
| --- | --- | --- | --- | --- |
| COc1c(C(=O)O)cnn1-c1cccc(-c2cc(C)ccc2OCc2ccc3c(c2C)CCN(C2CCOCC2)C3)n1 [Compound 124] | 100 (≈ 176 µM) | 8.6 (≈ 15.1 µM) | 44 (≈ 77.4 µM) | 7.33 |
| CCOc1c(C(=O)O)cnn1-c1cccc(-c2cccc(C)c2OCc2ccc3c(c2C)CCN(C[C@@H]2CCCOC2)C3)n1 [Compound 152] | 97 (≈ 163 µM) | 74 (≈ 124 µM) | 74 (≈ 124 µM) | 7.85 |
| COc1c(C(=O)O)cnn1-c1cccc(-c2cccc(C)c2OCc2ccc3c(c2C)CCN(C[C@H]2COCCO2)C3)n1 [Compound 142] | 120 (≈ 205 µM) | 87 (≈ 149 µM) | 93 (≈ 159 µM) | 7.21 |
| COc1c(C(=O)O)cnn1-c1cccc(-c2cccc(C)c2OCc2cc(C)c3c(c2C)CN(C2CCOCC2)C3)n1 [Compound 145] | 110 (≈ 193 µM) | 92 (≈ 162 µM) | 94 (≈ 165 µM) | 7.89 |
| COc1c(C(=O)O)cnn1-c1cccc(-c2cccc(C(F)(F)F)c2OCc2ccc3c(c2)CCN(C2COC2)C3)n1 [Compound 9] | 94 (≈ 162 µM) | 70 (≈ 121 µM) | 82 (≈ 141 µM) | 7.23 |
| COc1c(C(=O)O)cnn1-c1cccc(-c2ccc(C)cc2OCc2ccc3c(c2C)CCN(C2CCOCC2)C3)n1 [Compound 99] | 150 (≈ 264 µM) | 120 (≈ 211 µM) | 110 (≈ 193 µM) | 6.80 |
| CCOc1c(C(=O)O)cnn1-c1cccc(-c2cccc(C)c2OCc2ccc3c(c2C)CCN(C2COC2)CC3)n1 [Compound 175] | 110 (≈ 193 µM) | 80 (≈ 141 µM) | 85 (≈ 149 µM) | 7.40 |

The next lines start with the values.

| solubility at 24 h ([1]; pH 2.2, aqueous buffer) [µg/mL] | solubility at 24 h ([1]; pH 4.5, aqueous buffer) [µg/mL] | solubility at 24 h ([1]; pH 6.8, aqueous buffer) [µg/mL] | pEC50 [2] | Compound |
| --- | --- | --- | --- | --- |
| 94 (≈ 148 µM) | 70 (≈ 110 µM) | 62 (≈ 97.4 µM) | 7.60 | CCOc1c(C(=O)O)cnn1-c1cccc(-c2cccc(C)c2OCc2cc3c(c(C(F)(F)F)c2)CN(C2CCOCC2)CC3)n1 [Compound 157] |
| 90 (≈ 158 µM) | 73 (≈ 128 µM) | 74 (≈ 130 µM) | 6.96 | CCOc1c(C(=O)O)cnn1-c1cccc(-c2cccc(C)c2OCc2ccc3c(c2)CCN(CC2CCCO2)C3)n1 (stereo not drawn) [Compound 101, 5-ethoxy-1-(6-{3-methyl-2-[2-(tetrahydro-furan-2-ylmethyl)-1,2,3,4-tetrahydro-isoquinolin-6-ylmethoxy]-phenyl}-pyridin-2-yl)-1H-pyrazole-4-carboxylic acid] |
| 130 (≈ 222 µM) | 97 (≈ 166 µM) | 110 (≈ 188 µM) | 6.39 | CCOc1c(C(=O)O)cnn1-c1cccc(-c2cccc(C)c2OCc2ccc3c(c2)OCCN(C2CCOCC2)C3)n1 [Compound 131] |
| 110 (≈ 209 µM) | 82 (≈ 156 µM) | 98 (≈ 186 µM) | 7.38 | COc1c(C(=O)O)cnn1-c1cccc(-c2cccc(C)c2OCc2ccc3c(c2)CCN(C2COC2)C3)n1 [Compound 8] |
| 110 (≈ 184 µM) | 91 (≈ 152 µM) | 97 (≈ 163 µM) | 7.85 | Cc1cc(COc2c(C)cccc2-c2cccc(-n3ncc(C(=O)O)c3OC(C)C)n2)cc2c1CN(C1CCOCC1)CC2 [Compound 161] |
| 100 (≈ 180 µM) | 72 (≈ 130 µM) | 93 (≈ 168 µM) | 7.49 | CCOc1c(C(=O)O)cnn1-c1cccc(-c2cccc(C)c2OCc2ccc3c(c2C)CCN(C2COC2)C3)n1 [Compound 164] |
| 94 (≈ 161 µM) | 80 (≈ 137 µM) | 84 (≈ 144 µM) | 7.62 | Cc1cccc(-c2cccc(-n3ncc(C(=O)O)c3OC(C)C)n2)c1OCc1ccc2c(c1)CCN([C@@H]1CCCOC1)C2 [Compound 113] |
| 89 (≈ 153 µM) | 71 (≈ 122 µM) | 43 (≈ 73.8 µM) | 7.17 | Cc1cccc(-c2cccc(-n3ncc(C(=O)O)c3OC(C)C)n2)c1OCc1ccc2c(c1)CCN([C@H]1CCCOC1)C2 [Compound 115] |
